Molecular target: TNF-α converting enzyme (TACE) (Homo sapiens, UniProt P78536)
Assay: Test procedure for measuring TACE inhibition (fluorescent peptidyl substrate)
Type: biochemical
Conditions: Table 1

Chain of TNF-α converting enzyme (TACE) (P78536 215-824): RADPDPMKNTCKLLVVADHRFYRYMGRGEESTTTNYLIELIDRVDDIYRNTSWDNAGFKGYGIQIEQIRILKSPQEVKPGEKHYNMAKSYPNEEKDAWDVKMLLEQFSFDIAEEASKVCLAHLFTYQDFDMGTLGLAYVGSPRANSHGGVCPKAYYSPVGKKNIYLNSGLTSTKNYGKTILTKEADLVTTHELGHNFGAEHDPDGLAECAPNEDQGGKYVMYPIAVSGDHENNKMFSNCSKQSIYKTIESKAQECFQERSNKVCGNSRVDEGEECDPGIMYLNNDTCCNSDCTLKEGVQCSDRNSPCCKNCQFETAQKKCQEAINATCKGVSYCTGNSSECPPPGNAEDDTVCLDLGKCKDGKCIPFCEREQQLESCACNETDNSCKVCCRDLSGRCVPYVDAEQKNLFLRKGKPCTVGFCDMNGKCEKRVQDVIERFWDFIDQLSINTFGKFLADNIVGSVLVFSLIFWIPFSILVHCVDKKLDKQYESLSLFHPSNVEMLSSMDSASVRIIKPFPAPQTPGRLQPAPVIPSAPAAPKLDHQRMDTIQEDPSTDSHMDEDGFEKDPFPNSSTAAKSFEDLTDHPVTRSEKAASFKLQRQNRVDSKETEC

Compound	IC50
CC#CCOc1ccc(SC(CCCCNC(=O)Cc2csc3ccccc23)C(=O)NO)cc1 (stereo not shown) [Example 22, 6-(2-Benzo[b]thiophen-3-yl-acetylamino)-2-(4-but-2-ynyloxy-phenylsulfanyl)-hexanoic acid hydroxyamide]	32.8 nM
CC#CCOc1ccc([S+]([O-])C(CCCCNC(=O)CN2C(=O)c3ccccc3C2=O)C(=O)NO)cc1 (stereo not shown) [Example 24, 2-(4-But-2-ynyloxy-benzenesulfinyl)-6-[2-(1,3-dioxo-1,3-dihydro-isoindol-2-yl)-acetylamino]-hexanoic acid hydroxyamide]	30 nM
CC#CCOc1ccc(SC(CCCCNC(=O)CNC(=O)Cc2csc3ccccc23)C(=O)NO)cc1 (stereo not shown) [Example 52]	70.2 nM
CC#CCOc1ccc([S+]([O-])C(CCCCNC(=O)CCCc2cccs2)C(=O)NO)cc1 (stereo not shown) [Example 28, 2-(4-But-2-ynyloxy-benzenesulfinyl)-6-(4-thiophen-2-yl-butyrylamino)-hexanoic acid hydroxyamide]	26.6 nM
CC#CCOc1ccc(S(=O)(=O)C(CCCCNC(=O)CNC(=O)Cc2csc3ccccc23)C(=O)NO)cc1 (stereo not shown) [Example 69]	29.2 nM
CC#CCOc1ccc(S(=O)(=O)C(CCCCNC(=O)Cc2csc3ccccc23)C(=O)NO)cc1 (stereo not shown) [Example 42, 6-(2-Benzo[b]thiophen-3-yl-acetylamino)-2-(4-but-2-ynyloxy-benzenesulfonyl)-hexanoic acid hydroxyamide]	24.9 nM
CC#CCOc1ccc(SC(CCCCNC(=O)CNC(=O)CN2C(=O)c3ccccc3C2=O)C(=O)NO)cc1 (stereo not shown) [Example 45, 2-(4-But-2-ynyloxy-phenylsulfanyl)-6-{2-[2-(1,3-dioxo-1,3-dihydro-isoindol-2-yl)-acetylamino]-acetylamino}-hexanoic acid hydroxyamide]	16.1 nM
CC#CCOc1ccc(SC(CCCCNC(=O)c2ccc3ccccc3n2)C(=O)NO)cc1 (stereo not shown) [Example 14, Quinoline-2-carboxylic acid [5-(4-but-2-ynyloxy-phenylsulfanyl)-5-hydroxycarbamoylpentyl]-amide]	62.9 nM
CC#CCOc1ccc(SC(CCCCNC(=O)CNC(=O)c2ccc3ccccc3n2)C(=O)NO)cc1 (stereo not shown) [Example 44, Quinoline-2-carboxylic acid {[5-(4-but-2-ynyloxy-phenylsulfanyl)-5-hydroxycarbamoylpentylcarbamoyl]-methyl}-amide]	32.1 nM
CC#CCOc1ccc([S+]([O-])C(CCCCNC(=O)Cc2c[nH]c3ccccc23)C(=O)NO)cc1 (stereo not shown) [Example 33, 2-(4-But-2-ynyloxy-benzenesulfinyl)-6-(2-1H-indol-3-yl-acetylamino)-hexanoic acid hydroxyamide]	35.6 nM
CC#CCOc1ccc(S(=O)(=O)C(CCCCNC(=O)CNC(=O)CN2C(=O)c3ccccc3C2=O)C(=O)NO)cc1 (stereo not shown) [Example 63, 2-(4-But-2-ynyloxy-benzenesulfonyl)-6-{2-[2-(1,3-dioxo-1,3-dihydro-isoindol-2-yl)-acetyl-amino]-acetylamino}-hexanoic acid hydroxyamide]	16.1 nM
2-(4-But-2-ynyloxy-benzenesulfinyl)-6-diphenylacetylamino-hexanoic acid hydroxyamide [Example 60]	40.9 nM
CC#CCOc1ccc(S(=O)(=O)C(CCCCNC(=O)C2c3ccccc3Oc3ccccc32)C(=O)NO)cc1 (stereo not shown) [Example 39, 9H-Xanthene-9-carboxylic acid [5-(4-but-2-ynyloxy-benzenesulfonyl)-5-hydroxycarbamoyl-pentyl]-amide]	65.1 nM
CC#CCOc1ccc(SC(CCCCNC(=O)Cc2ccc(Cl)c(Cl)c2)C(=O)NO)cc1 (stereo not shown) [Example 16, 2-(4-But-2-ynyloxy-phenylsulfanyl)-6-[2-(3,4-dichloro-phenyl)-acetylamino]-hexanoic acid hydroxyamide]	24.9 nM
CC#CCOc1ccc(S(=O)(=O)C(CCCCNC(=O)CNC(=O)C2c3ccccc3Oc3ccccc32)C(=O)NO)cc1 (stereo not shown) [Example 67, 9H-Xanthene-9-carboxylic acid {[5-(4-but-2-ynyloxy-benzenesulfonyl)-5-hydroxycarbamoyl-pentylcarbamoyl]-methyl}-amide]	34.8 nM
CC#CCOc1ccc([S+]([O-])C(CCCCNC(=O)CNC(=O)c2ccc3ccccc3n2)C(=O)NO)cc1 (stereo not shown) [Example 54]	27.2 nM
CC#CCOc1ccc([S+]([O-])C(CCCCNC(=O)Cc2ccc(Cl)c(Cl)c2)C(=O)NO)cc1 (stereo not shown) [Example 26, 2-(4-But-2-ynyloxy-benzenesulfinyl)-6-[2-(3,4-dichloro-phenyl)-acetylamino]-hexanoic acid hydroxyamide]	29.9 nM
CC#CCOc1ccc(S(=O)(=O)C(CCCCNC(=O)CN2C(=O)c3ccccc3C2=O)C(=O)NO)cc1 (stereo not shown) [Example 36, 2-(4-But-2-ynyloxy-benzenesulfonyl)-6-[2-(1,3-dioxo-1,3-dihydro-isoindol-2-yl)-acetylamino]-hexanoic acid hydroxyamide]	16.8 nM
N-[5-(4-But-2-ynyloxy-benzenesulfonyl)-5-hydroxycarbamoyl-pentyl]-2-phenethyl-benzamide [Example 34]	147 nM
CC#CCOc1ccc(SC(CCCCNC(=O)CNC(=O)c2cnc3ccccc3c2)C(=O)NO)cc1 (stereo not shown) [Example 47, Quinoline-3-carboxylic acid {[5-(4-but-2-ynyloxy-phenylsulfanyl)-5-hydroxycarbamoyl-pentylcarbamoyl]-methyl}-amide]	18.9 nM

The remaining lines, values ahead:

IC50	Compound
68.3 nM	CC#CCOc1ccc(S(=O)(=O)C(CCCCNC(=O)c2ccc3ccccc3n2)C(=O)NO)cc1 (stereo not shown) [Example 35, Quinoline-2-carboxylic acid [5-(4-but-2-ynyloxy-benzenesulfonyl)-5-hydroxycarbamoylpentyl]-amide]
20.1 nM	CC#CCOc1ccc(SC(CCCCNC(=O)c2nccc3ccccc23)C(=O)NO)cc1 (stereo not shown) [Example 21, Isoquinoline-1-carboxylic acid [5-(4-but-2-ynyloxy-phenylsulfanyl)-5-hydroxycarbamoylpentyl]-amide]
22.4 nM	CC#CCOc1ccc(SC(CCCCNC(=O)CNC(=O)c2cccn2C)C(=O)NO)cc1 (stereo not shown) [Example 51, 1-Methyl-1H-pyrrole-2-carboxylic acid ([5-(4-but-2-ynyloxy-phenylsulfanyl)-5-hydroxycarbamoyl-pentylcarbamoyl]-methyl}-amide]
38.5 nM	CC#CCOc1ccc([S+]([O-])C(CCCCNC(=O)CNC(=O)CN2C(=O)c3ccccc3C2=O)C(=O)NO)cc1 (stereo not shown) [Example 55, 2-(4-But-2-ynyloxy-benzenesulfinyl)-6-[2-(1,3-dioxo-1,3-dihydro-isoindol-2-yl)-acetylammo]-hexanoic acid hydroxyamide]
39.9 nM	CC#CCOc1ccc(S(=O)(=O)C(CCCCNC(=O)c2cnc3ccccc3c2)C(=O)NO)cc1 (stereo not shown) [Example 38, Quinoline-3-carboxylic acid [5-(4-but-2-ynyloxy-benzenesulfonyl)-5-hydroxycarbamoylpentyl]-amide]
46.8 nM	CC#CCOc1ccc([S+]([O-])C(CCCCNC(=O)Cc2csc3ccccc23)C(=O)NO)cc1 (stereo not shown) [Example 32, 6-(2-Benzo[b]thiophen-3-yl-acetylamino)-2-(4-but-2-ynyloxy-benzenesulfinyl)-hexanoic acid hydroxyamide]
84.2 nM	CC#CCOc1ccc(SC(CCCCNC(=O)CNC(=O)c2ccccc2CCc2ccccc2)C(=O)NO)cc1 (stereo not shown) [Example 46]
37.3 nM	CC#CCOc1ccc(S(=O)(=O)C(CCCCNC(=O)c2nccc3ccccc23)C(=O)NO)cc1 (stereo not shown) [Example 41, Isoquinoline-1-carboxylic acid [5-(4-but-2-ynyloxy-benzenesulfonyl)-5-hydroxycarbamoyl-pentyl]-amide]
88.1 nM	CC#CCOc1ccc(S(=O)(=O)C(CCCCNC(=O)CNC(=O)Cc2c[nH]c3ccccc23)C(=O)NO)cc1 (stereo not shown) [Example 70, 2-(4-But-2-ynyloxy-benzenesulfonyl)-6-[2-(2-1H-indol-3-yl-acetylamino)-acetylamino]-hexanoic acid hydroxyamide]
46.3 nM	CC#CCOc1ccc([S+]([O-])C(CCCCNC(=O)c2cnc3ccccc3c2)C(=O)NO)cc1 (stereo not shown) [Example 27, Quinoline-3-carboxylic acid [5-(4-but-2-ynyloxy-benzenesulfinyl)-5-hydroxycarbamoylpentyl]-amide]
42.5 nM	CC#CCOc1ccc(SC(CCCCNC(=O)CN2C(=O)c3ccccc3C2=O)C(=O)NO)cc1 (stereo not shown) [Example 13, 2-(4-But-2-ynyloxy-phenylsulfanyl)-6-[2-(1,3-dioxo-1,3-dihydroiso-indol-2-yl)-acetylamino]-hexanoic acid hydroxyamide]
42 nM	CC#CCOc1ccc(S(=O)(=O)C(CCCCNC(=O)CNC(=O)c2ccccc2CCc2ccccc2)C(=O)NO)cc1 (stereo not shown) [Example 64, N-{[5-(4-But-2-ynyloxy-benzenesulfonyl)-5-hydroxycarbamoyl-pentylcarbamoyl]-methyl}-2-phenethyl-benzamide]
53.8 nM	CC#CCOc1ccc(SC(CCCCNC(=O)CNC(=O)C(c2ccccc2)c2ccccc2)C(=O)NO)cc1 (stereo not shown) [Example 49, 2-(4-But-2-ynyloxy-phenylsulfanyl)-6-(2-diphenylacetylamino-acetylamino)-hexanoic acid hydroxyamide]
43.3 nM	CC#CCOc1ccc(SC(CCCCNC(=O)C2c3ccccc3Oc3ccccc32)C(=O)NO)cc1 (stereo not shown) [Example 19, 9H-Xanthene-9-carboxylic acid [5-(4-but-2-ynyloxy-phenylsulfanyl)-5-hydroxycarbamoylpentyl]-amide]
138 nM	CC#CCOc1ccc(SC(CCCCNC(=O)c2ccccc2CCc2ccccc2)C(=O)NO)cc1 (stereo not shown) [Example 15, N-[5-(4-But-2-ynyloxy-phenylsulfanyl)-5-hydroxycarbamoyl-pentyl]-2-phenethylbenzamide]
82.1 nM	CC#CCOc1ccc(SC(CCCCNC(=O)CNC(=O)C2c3ccccc3Oc3ccccc32)C(=O)NO)cc1 (stereo not shown) [Example 48, 9H-Xanthene-9-carboxylic acid {[5-(4-but-2-ynyloxy-phenylsulfanyl)-5-hydroxycarbamoylpentylcarbamoyl]-methyl}-amide]
43.7 nM	CC#CCOc1ccc(SC(CCCCNC(=O)c2cnc3ccccc3c2)C(=O)NO)cc1 (stereo not shown) [Example 17, Quinoline-3-carboxylic acid [5-(4-but-2-ynyloxy-phenylsulfanyl)-5-hydroxycarbamoylpentyl]-amide]

— patent EP1147080B1 (Wyeth Holdings Corporation, priority 1999, dated 2000)
